Assay results from ChEMBL document CHEMBL3045662, “Synthesis of quinolactacide via an acyl migration reaction and dehydrogenation with manganese dioxide, and its insecticidal activities” (2006).
Activity calls are given as the source filed them. The rule behind the calls is not given here.

Key:
Bemisia argentifolii = assay: Insecticidal activity against Bemisia argentifolii assessed as mortality at 500 ppm; type: functional, organism-based
Spodoptera litura = assay: Insecticidal activity against Spodoptera litura assessed as mortality at 500 ppm; type: functional, organism-based
Tetranychus urticae = assay: Insecticidal activity against Tetranychus urticae (two-spotted spider mite) in primary leaf stage of bean plant assessed as mortality at 500 ppm after 2 days; type: functional; conditions: 48 h
Plutella xylostella = assay: Insecticidal activity against third-instar larvae of Plutella xylostella (diamondback moth) in six-leaf stage of cabbage plant assessed as mortality at 500 ppm sprayed over two excised leaf squares after 2 days; type: functional; conditions: 48 h
[1] = tested on: Frankliniella occidentalis; assay: Insecticidal activity against Frankliniella occidentalis (western flower thrips) assessed as mortality at 500 ppm; type: functional, organism-based

Structure (SMILES): O=C1c2c([nH]c3ccccc3c2=O)-c2cccn21 [QUINOLACTACIDE]
- mortality (Bemisia argentifolii): inactive
- mortality (Spodoptera litura): inactive
- mortality at 500 ppm (Tetranychus urticae): 42%
- mortality at 500 ppm (Plutella xylostella): 100%
- mortality [1]: inactive
